The values that follow come from PubChem BioAssay AID330 (DTP/NCI, 2004).

Several values for one entry are separate records, joined by “and”; a condition that tells them apart may be missing. Equal values may be shown once. Toxic doses and inconclusive results are not listed. Square brackets hold non-standard residues; d marks the D form. Peptide text beside a SMILES is read from it. * marks the point of attachment. ξ: configuration not given here. Cbz = O=C(OCc1ccccc1)*; ξNva = CCCC(N)C(=O)O

The assay has as its system P388 leukemia ip, CD2F1 mice, survival T/C. Put plainly: NCI In Vivo Anticancer Drug Screen. Data for tumor model P388 Leukemia (intraperitoneal) in CD2F1 (CDF1) mice. The note with it: endpoint: median survival time, higher = longer survival. A digest of the protocol:
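Mice carrying the transplanted tumor received test compound or vehicle. Survival was recorded in each group, and the value is the treated-group measurement divided by that of the vehicle-treated control group.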

The mark [1] stands for this setting: dose: 50.0 mg/kg/injection, schedule: Q01DX009 (ip), vehicle: saline with Tween-80.

On to `CC[C@@]1(O)C[C@H](OC2CC(N(C)C)C(OC3CC(O)C(OC4CCC(=O)C(C)O4)C(C)O3)C(C)O2)c2c(cc3c(c2O)C(=O)c2c(O)cccc2C3=O)[C@H]1C(=O)OC` (some centres undefined), for which the T/C reads like this: (dose: 0.5 mg/kg/injection, schedule: Q03HX008 (ip), vehicle: saline) 120 % of control; (dose: 1.0 mg/kg/injection, schedule: Q01DX005 (iv), vehicle: saline) 108 % of control; (dose: 1.0 mg/kg/injection, schedule: Q01DX009 (oral), vehicle: saline) 98 % of control; (dose: 1.0 mg/kg/injection, schedule: Q01DX009 (sc), vehicle: saline) 115 % of control; (dose: 1.0 mg/kg/injection, schedule: Q03HX024 (ip), vehicle: saline) 167 % of control; (dose: 1.0 mg/kg/injection, schedule: Q04DX003 (ip), vehicle: saline) 103 % of control. Besides, the T/C by setting is: (dose: 1.94 mg/kg/injection, schedule: Q04DX003 (ip), vehicle: clinical formulation) 96 % of control; (dose: 2.0 mg/kg/injection, schedule: Q01DX001 (iv), vehicle: saline) 105 % of control; (dose: 2.0 mg/kg/injection, schedule: Q01DX005 (ip), vehicle: saline) 167 % of control; (dose: 2.0 mg/kg/injection, schedule: Q01DX005 (iv), vehicle: saline) 120 % of control; (dose: 2.0 mg/kg/injection, schedule: Q01DX009 (ip), vehicle: saline) 168 % of control; (dose: 2.0 mg/kg/injection, schedule: Q01DX009 (oral), vehicle: saline) 115 % of control. The T/C was 117 % of control (dose: 2.0 mg/kg/injection, schedule: Q04DX003 (ip), vehicle: clinical formulation); 116 % of control and 120 % of control (dose: 2.0 mg/kg/injection, schedule: Q04DX003 (ip), vehicle: saline); 180 % of control (dose: 2.5 mg/kg/injection, schedule: Q01DX009 (ip), vehicle: saline); 114 % of control (dose: 2.59 mg/kg/injection, schedule: Q04DX002 (ip), vehicle: saline); 116 % of control (dose: 4.0 mg/kg/injection, schedule: Q01DX001 (iv), vehicle: saline); 189 % of control (dose: 4.0 mg/kg/injection, schedule: Q01DX005 (ip), vehicle: saline). The T/C by setting is: (dose: 4.0 mg/kg/injection, schedule: Q01DX005 (iv), vehicle: saline) 162 % of control; (dose: 4.0 mg/kg/injection, schedule: Q01DX009 (ip), vehicle: saline) 99 % of control; (dose: 4.0 mg/kg/injection, schedule: Q01DX009 (sc), vehicle: saline) 153 % of control; (dose: 4.0 mg/kg/injection, schedule: Q03HX008 (ip), vehicle: saline) 173 % of control; (dose: 4.0 mg/kg/injection, schedule: Q04DX003 (ip), vehicle: Klucel (hydroxypropylcellulose) (HPC)) 122 % of control; (dose: 4.32 mg/kg/injection, schedule: Q04DX002 (ip), vehicle: saline) 151 % of control. Further, the T/C reads like this: (dose: 5.4 mg/kg/injection, schedule: Q04DX003 (ip), vehicle: clinical formulation) 113 % of control; (dose: 5.4 mg/kg/injection, schedule: Q04DX003 (ip), vehicle: saline) 159 % of control; (dose: 6.7 mg/kg/injection, schedule: Q04DX003 (ip), vehicle: water) 154 % of control; (dose: 7.2 mg/kg/injection, schedule: Q04DX002 (ip), vehicle: saline) 161 % of control; (dose: 7.2 mg/kg/injection, schedule: Q04DX003 (ip), vehicle: saline) 175 % of control; (dose: 8.0 mg/kg/injection, schedule: Q01DX001 (oral), vehicle: saline) 110 % of control. Also, the T/C is, setting by setting: (dose: 8.0 mg/kg/injection, schedule: Q01DX009 (oral), vehicle: saline) 153 % of control; (dose: 8.0 mg/kg/injection, schedule: Q01DX009 (sc), vehicle: saline) 95 % of control; (dose: 8.0 mg/kg/injection, schedule: Q04DX003 (ip), vehicle: clinical formulation) 183 % of control; (dose: 8.0 mg/kg/injection, schedule: Q04DX003 (ip), vehicle: saline) 172 % of control and 176 % of control; (dose: 9.0 mg/kg/injection, schedule: Q04DX003 (ip), vehicle: clinical formulation) 114 % of control; (dose: 9.0 mg/kg/injection, schedule: Q04DX003 (ip), vehicle: saline) 198 % of control. Besides, the T/C is, setting by setting: (dose: 10.0 mg/kg/injection, schedule: Q04DX003 (ip), vehicle: water) 170 % of control; (dose: 12.0 mg/kg/injection, schedule: Q04DX002 (ip), vehicle: saline) 166 % of control; (dose: 15.0 mg/kg/injection, schedule: Q04DX003 (ip), vehicle: saline) 95 % of control; (dose: 15.0 mg/kg/injection, schedule: Q04DX003 (ip), vehicle: water) 187 % of control; (dose: 16.0 mg/kg/injection, schedule: Q01DX001 (ip), vehicle: saline) 153 % of control; (dose: 16.0 mg/kg/injection, schedule: Q01DX001 (oral), vehicle: saline) 116 % of control. Besides, the T/C reads like this: (dose: 16.0 mg/kg/injection, schedule: Q04DX003 (ip), vehicle: Klucel (hydroxypropylcellulose) (HPC)) 154 % of control; (dose: 16.0 mg/kg/injection, schedule: Q04DX003 (ip), vehicle: saline) 117 % of control; (dose: 32.0 mg/kg/injection, schedule: Q01DX001 (ip), vehicle: saline) 180 % of control; (dose: 32.0 mg/kg/injection, schedule: Q01DX001 (iv), vehicle: saline) 159 % of control.
For `Cn1c(=S)[nH]c2scc(-c3ccccc3)c2c1=O`, the T/C is 87 % of control (dose: 60.0 mg/kg/injection, schedule: Q01DX005 (ip), vehicle: saline with Tween-80) and 96 % of control (dose: 240.0 mg/kg/injection, schedule: Q01DX005 (ip), vehicle: saline with Tween-80).
Consider `Cn1c(=O)c2c(nc(CCCCc3nc4c(c(=O)n(C)c(=O)n4C)n3C)n2C)n(C)c1=O`, for which the T/C (dose: 1.56 mg/kg/injection, schedule: Q01DX009 (ip), vehicle: saline with Tween-80) is 87 % of control; the T/C (dose: 3.13 mg/kg/injection, schedule: Q01DX009 (ip), vehicle: saline with Tween-80) was 89 % of control; the T/C (dose: 6.25 mg/kg/injection, schedule: Q01DX009 (ip), vehicle: saline with Tween-80) was 88 % of control; the T/C under setting [1] was 86 % of control.
`CN1CCC/C1=C\C(=O)c1ccco1`: the T/C was 100 % of control (dose: 15.0 mg/kg/injection, schedule: Q01DX005 (ip), vehicle: Klucel (hydroxypropylcellulose) (HPC)); 103 % of control (dose: 30.0 mg/kg/injection, schedule: Q01DX005 (ip), vehicle: Klucel (hydroxypropylcellulose) (HPC)); 109 % of control and 89 % of control (dose: 60.0 mg/kg/injection, schedule: Q01DX005 (ip), vehicle: Klucel (hydroxypropylcellulose) (HPC)).
In the case of `CCCCOc1ccc(NC(=O)Nc2nnc(C)s2)cc1`, the T/C is 99 % of control under setting [1]; 89 % of control (dose: 100.0 mg/kg/injection, schedule: Q01DX009 (ip), vehicle: saline with Tween-80); 86 % of control (dose: 200.0 mg/kg/injection, schedule: Q01DX009 (ip), vehicle: saline with Tween-80).
In the case of `COc1ccc2c3c1OC1c4[nH]ncc4C[C@H]4[C@@H](C2)N(C)CC[C@]314` (some centres undefined), the T/C (dose: 100.0 mg/kg/injection, schedule: Q04DX002 (ip), vehicle: saline with Tween-80) is 108 % of control and the T/C (dose: 200.0 mg/kg/injection, schedule: Q04DX002 (ip), vehicle: saline with Tween-80) was 99 % of control.
`CCCC(NC(=O)CNC(=O)OCc1ccccc1)C(=O)O` (stereo not drawn) (Cbz-Gly-[ξNva]-OH): the T/C was 104 % of control (dose: 50.0 mg/kg/injection, schedule: Q01DX005 (ip), vehicle: Klucel (hydroxypropylcellulose) (HPC)) and 98 % of control (dose: 100.0 mg/kg/injection, schedule: Q01DX005 (ip), vehicle: Klucel (hydroxypropylcellulose) (HPC)).
As to `C=CCOc1cc2c(cc1C(C)c1ccc(OC)cc1)OCO2` (centres undefined), the T/C was 104 % of control and 116 % of control (dose: 25.0 mg/kg/injection, schedule: Q01DX005 (ip), vehicle: Klucel (hydroxypropylcellulose) (HPC)); 100 % of control and 109 % of control (dose: 100.0 mg/kg/injection, schedule: Q01DX005 (ip), vehicle: saline with Tween-80); 202 % of control (dose: 200.0 mg/kg/injection, schedule: Q01DX005 (ip), vehicle: Klucel + Tween-80); 106 % of control and 112 % of control (dose: 200.0 mg/kg/injection, schedule: Q01DX005 (ip), vehicle: saline with Tween-80); 96 % of control (dose: 500.0 mg/kg/injection, schedule: Q01DX001 (ip), vehicle: saline with Tween-80); 184 % of control (dose: 800.0 mg/kg/injection, schedule: Q01DX005 (ip), vehicle: saline with Tween-80). Further, the T/C (dose: 1000.0 mg/kg/injection, schedule: Q01DX001 (ip), vehicle: saline with Tween-80) was 122 % of control.
